# Source: paper PMC5740381 (Antimicrobial Agents and Chemotherapy, 2017)
# Values joined by “and” are separate entries in the source; they are usually repeats but may differ in a detail not shown here. Equal values may be shown once. Read-outs that look alike come from different tables or passages of the source.
# Key:
# [1] = system: HCV subgenomic stable replicon GT6e; experiment: microbe, parasite or virus in culture; format: cell-based, Hepatitis C virus; conditions: read-out: Mean EC50 ± SD
# From the text: (§1) Five of these nine cell lines have been described previously, including those transfected with genotypes 1a H77, 1b Con1, 3a, 4a, and 6a ([28]). […] The genotype 2b and 6e NS3 sequences were each synthetically constructed based on a consensus sequence derived from the alignment of 15 genotype 2b and 4 genotype 6e sequences, respectively. All replicon constructs were bicistronic subgenomic replicons similar to those described by Bartenschlager and coworkers, and the replicon cell lines were generated by introducing these constructs into cells of an Huh-7 human hepatoma-derived cell line ([50]). The inhibitory effect of the PIs on HCV replication in replicon cells was determined in Dulbecco's modified Eagle medium containing 5% fetal bovine serum with or without 40% human plasma (Bioreclamation, Westbury, NY). The EC50s were determined using nonlinear regression curve fitting as described previously ([33]).
# [2] = system: HCV replicons with genotype 2b patient proteases; experiment: Transient replicon assay with proteases from HCV-infected patients; format: cell-based; conditions: Hepatitis C virus, read-out: EC50 Range
# From the text: (§2) Each of the NS3 gene sequences from genotypes 1, 2, and 4, with the exception of two genotype 2b sequences, was derived from serum or plasma from an HCV-infected patient by bulk PCR amplification, producing a population of sequences representing the viral quasispecies. Two genotype 2b sequences were synthesized based on the consensus sequences of the respective samples. One genotype 3a sequence was synthesized based on a consensus sequence from the sequences available in the Los Alamos HCV sequence database, and another genotype 3a sequence was a clonal sequence derived from a patient sample. The genotype 5a sequence (strain SA13) was synthesized based on the published sequence of the HCV isolate ([48]).
# For the analysis of NS3 sequences from patients, we defined a polymorphism to be an amino acid difference in the sequence of a baseline sample relative to the sequence of the appropriate HCV subtype reference sequence: genotype 1a H77 (GenBank accession number NC_004102), genotype 1b Con1 (GenBank accession number AJ238799), genotype 2a JFH-1 (GenBank accession number AB047639), genotype 2b HC-J8 (GenBank accession number D10988), genotype 3a S52 (GenBank accession number GU814263), genotype 4a ED43 (GenBank accession number GU814265), genotype 4d QC382 (GenBank accession number FJ462437), and genotype 5a SA13 (GenBank accession number AF064490). […]
# [3] = system: HCV subgenomic stable replicons containing proteases from genotypes 1 to 6; experiment: Stable HCV replicon assay, several genotypes; format: cell-based; conditions: Hepatitis C virus, Huh-7, read-out: EC50, range over stable replicons
# From the text: as §1
# [4] = MTT cytotoxicity assay; conditions: human
# Protocol: For MT4 cells, 10,000 cells/well were plated immediately before the addition of glecaprevir. The rest of the assay was performed as described previously ([33]).
# [5] = system: HCV replicons with genotype 2a patient proteases; experiment: Transient replicon assay with proteases from HCV-infected patients; format: cell-based; conditions: Hepatitis C virus, subtype 2a, no polymorphism, 4 samples
# From the text: as §2, with “[…]. Each” for “Each”
# A genotype 2a JFH-1 replicon shuttle vector was used to generate transient replicons containing NS3 from clinical samples from genotype 2a- and genotype 2b-infected patients. The region encoding the first 227 amino acids of NS3 from samples from genotype 2a- and 2b-infected patients was used to replace the corresponding region in the genotype 2a JFH-1 replicon shuttle vector. The genotype 2a JFH-1 replicon shuttle vector was also used to generate a transient replicon containing a region encoding full-length NS3 through the first 39 amino acids of NS5B from genotype 5a (strain SA13). […]
# [6] = system: HCV replicons with genotype 4a patient proteases; experiment: as above; format: cell-based; conditions: Hepatitis C virus
# From the text: as §2
# Transient replicons containing NS3 from clinical samples from HCV genotype 1a- and 1b-infected patients were described previously ([28]).
# For the analysis of NS3 sequences from patients, we defined a polymorphism to be an amino acid difference in the sequence of a baseline sample relative to the sequence of the appropriate HCV subtype reference sequence: genotype 1a H77 (GenBank accession number NC_004102), genotype 1b Con1 (GenBank accession number AJ238799), genotype 2a JFH-1 (GenBank accession number AB047639), genotype 2b HC-J8 (GenBank accession number D10988), genotype 3a S52 (GenBank accession number GU814263), genotype 4a ED43 (GenBank accession number GU814265), genotype 4d QC382 (GenBank accession number FJ462437), and genotype 5a SA13 (GenBank accession number AF064490). […] All DNA sequencing was performed by the Sanger sequencing method.
# [7] = system: HIV-1 IIIB strain; experiment: HIV-1 antiviral cytoprotection assay, CEM-SS cells; format: cell-based, human immunodeficiency virus type 1; conditions: Human immunodeficiency virus 1, IIIB, read-out: Mean EC50 ± SD
smiles,measurement,setting,value
C=C[C@@H]1C[C@]1(NC(=O)[C@@H]1C[C@@H]2CN1C(=O)[C@H](C(C)(C)C)NC(=O)O[C@@H]1C[C@H]1CCCCCc1nc3ccc(OC)cc3nc1O2)C(=O)NS(=O)(=O)C1CC1 [Grazoprevir],EC50,[1]; 0% human plasma,0.25 ± 0.01 nM
Cc1cnc(C(=O)N[C@H]2CCCCC/C=C\[C@@H]3C[C@@]3(C(=O)NS(=O)(=O)C3CC3)NC(=O)[C@@H]3C[C@@H](Oc4nc5ccccc5c5ccccc45)CN3C2=O)cn1 [Paritaprevir],EC50,"[1]; Hepatitis C virus, Huh-7, 0% human plasma",0.44 ± 0.17 nM
"CC(C)(C)[C@@H]1NC(=O)O[C@@H]2CCC[C@H]2OC/C=C/C(F)(F)c2nc3ccccc3nc2O[C@@H]2C[C@@H](C(=O)N[C@]3(C(=O)NS(=O)(=O)C4(C)CC4)C[C@H]3C(F)F)N(C2)C1=O [Glecaprevir, (3aR,7S,10S,12R,21E,24aR)-7-tert-butyl-N-[(1R,2R)-2-(difluoromethyl)-1-{[(1-methylcyclopropyl)sulfonyl]carbamoyl}cyclopropyl]-20,20-difluoro-5,8-dioxo-2,3,3a,5,6,7,8,11,12,20,23,24a-dodecahydro-1H,10H-9,12-methanocyclopenta[18,19][1,10,17,3,6]trioxadiazacyclononadecino[11,12-b]quinoxaline-10-carboxamide]",EC50,[2],1.4 to 3.2 nM
same,EC50,[3],0.21 to 4.6 nM
same,CC50,[4],72 µM and 60 µg/mL
same,EC50,[5]; read-out: EC50 Median,1.6 nM
same,EC50,[5]; read-out: EC50 Range,0.66 to 1.9 nM
same,EC50,"[6]; read-out: EC50 Median, subtype 4a, T54S, 1 sample",0.44 nM
same,EC50,"[6]; read-out: EC50 Median, subtype 4a, no polymorphism, 5 samples",0.39 nM
same,EC50,"[6]; read-out: EC50 Range, subtype 4a, no polymorphism, 5 samples",0.31 to 0.55 nM
same,EC50,[7],> 22000 nM
